# Experimental data reported in patent publication US10196668B2, “Reagents and methods for screening MPS I, II, IIIA, IIIB, IVA, VI, and VII” (University of Washington through its Center for …, priority 2013, dated 2019).
# Where “and” joins values, the source holds several entries; their conditions need not be identical. Equal entries are not always repeated. Structures can show the parent of a compound that is named as a salt.
# T1: Recombinant human hexosaminidase A (Homo sapiens, UniProt P06865)
# T1 sequence (P06865 89-529): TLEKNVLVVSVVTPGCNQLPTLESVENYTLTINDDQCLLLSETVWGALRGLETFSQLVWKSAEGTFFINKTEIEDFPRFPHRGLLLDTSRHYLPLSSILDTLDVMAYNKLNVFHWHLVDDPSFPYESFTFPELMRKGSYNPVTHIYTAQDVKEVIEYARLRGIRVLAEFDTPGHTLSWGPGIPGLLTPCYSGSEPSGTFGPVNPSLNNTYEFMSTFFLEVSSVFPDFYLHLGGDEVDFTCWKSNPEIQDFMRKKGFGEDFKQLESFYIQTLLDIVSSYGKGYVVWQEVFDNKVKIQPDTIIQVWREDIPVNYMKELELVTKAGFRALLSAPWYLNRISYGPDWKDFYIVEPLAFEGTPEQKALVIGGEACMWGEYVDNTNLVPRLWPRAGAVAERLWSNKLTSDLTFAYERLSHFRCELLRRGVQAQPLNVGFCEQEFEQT
# T1 sequence (P07686 122-556 partner): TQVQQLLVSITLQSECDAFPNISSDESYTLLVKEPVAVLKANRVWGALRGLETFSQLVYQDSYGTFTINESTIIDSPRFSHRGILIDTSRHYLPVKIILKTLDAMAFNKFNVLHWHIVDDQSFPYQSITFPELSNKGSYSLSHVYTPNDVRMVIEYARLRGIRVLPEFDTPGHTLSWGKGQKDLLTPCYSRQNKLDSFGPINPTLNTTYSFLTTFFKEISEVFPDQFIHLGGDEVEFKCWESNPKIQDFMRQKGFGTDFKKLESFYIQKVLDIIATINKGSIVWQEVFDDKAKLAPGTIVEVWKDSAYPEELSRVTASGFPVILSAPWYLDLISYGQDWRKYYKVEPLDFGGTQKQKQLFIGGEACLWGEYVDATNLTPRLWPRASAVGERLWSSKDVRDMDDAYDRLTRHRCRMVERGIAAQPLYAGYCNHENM
# T2: human hexosaminidase A (Homo sapiens, UniProt P06865+P07686)
# T2 construct: from tissue; host or cells: dried blood spot from a random newborn
# T2 sequence (P06865 89-529): T1 sequence (P06865 89-529)
# T2 sequence (P07686 122-556): T1 sequence (P07686 122-556 partner)
# T3: iduronic acid 2-sulfatase (Homo sapiens, UniProt P22304)
# T3 construct: from tissue; host or cells: dried blood spot (3 mm punch)
# T3 sequence (P22304 34-550): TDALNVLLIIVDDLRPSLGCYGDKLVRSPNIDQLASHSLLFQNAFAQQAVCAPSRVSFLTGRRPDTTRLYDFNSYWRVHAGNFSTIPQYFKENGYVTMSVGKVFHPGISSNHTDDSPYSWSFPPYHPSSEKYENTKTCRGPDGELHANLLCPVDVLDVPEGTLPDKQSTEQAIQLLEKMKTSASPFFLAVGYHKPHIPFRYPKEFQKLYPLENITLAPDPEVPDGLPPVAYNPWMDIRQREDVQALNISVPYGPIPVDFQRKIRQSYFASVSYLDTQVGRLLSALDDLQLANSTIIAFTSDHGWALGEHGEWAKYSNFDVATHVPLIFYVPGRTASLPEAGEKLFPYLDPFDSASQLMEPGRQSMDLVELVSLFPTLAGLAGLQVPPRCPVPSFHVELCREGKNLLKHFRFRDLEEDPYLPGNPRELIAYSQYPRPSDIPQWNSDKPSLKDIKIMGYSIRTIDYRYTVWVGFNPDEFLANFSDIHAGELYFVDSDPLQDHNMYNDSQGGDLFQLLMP
# B1: iduronidase: human alpha-L-iduronidase (a glycohydrolase) obtained by overexpression in mammalian cells, second enzyme (protein, UniProt P35475 28-653, looked up)
# Alpha-L-iduronidase: APHLVHVDAARALWPLRRFWRSTGFCPPLPHSQADQYVLSWDQQLNLAYVGAVPHRGIKQVRTHWLLELVTTRGSTGRGLSYNFTHLDGYLDLLRENQLLPGFELMGSASGHFTDFEDKQQVFEWKDLVSSLARRYIGRYGLAHVSKWNFETWNEPDHHDFDNVSMTMQGFLNYYDACSEGLRAASPALRLGGPGDSFHTPPRSPLSWGLLRHCHDGTNFFTGEAGVRLDYISLHRKGARSSISILEQEKVVAQQIRQLFPKFADTPIYNDEADPLVGWSLPQPWRADVTYAAMVVKVIAQHQNLLLANTTSAFPYALLSNDNAFLSYHPHPFAQRTLTARFQVNNTRPPHVQLLRKPVLTAMGLLALLDEEQLWAEVSQAGTVLDSNHTVGVLASAHRPQGPADAWRAAVLIYASDDTRAHPNRSVAVTLRLRGVPPGPGLVYVTRYLDNGLCSPDGEWRRLGRPVFPTAEQFRRMRAAEDPVAAAPRPLPAGGRLTLRPALRLPSLLLVHVCARPEKPPGQVTRLRALPLTQGQLVLVWSDEHVGSKCLWTYEIQFSQDGKAYTPVSRKPSTFNLFVFSPDTGAVSGSYRVRALDYWARPGPFSDPVPYLEVPVPRGPPSPGNP
# Experiments:
# Format in all cases: biochemical
# [1] = biological target: T1, Recombinant human hexosaminidase A; test: Action of hexosaminidase A on ASB substrate, UHPLC-MS/MS; conditions: 1 mM ASB substrate, 100 mM ammonium formate pH 5.6, 5 hrs at 37° C.
# Description: The mixture includes 1 mM ASB substrate in 100 mM ammonium formate buffer, pH 5.6 containing the indicated amount of hexosaminidase. After incubation for 5 hrs at 37° C., the mixture is analyzed by UHPLC-MS/MS. The aglycone signal is not due to contamination of the substrate with aglycone because no aglycone is seen when hexosaminidase A is omitted. The aglycone is not the result of cleavage of the ASB in the electrospray ionization source of the mass spectrometer because the amount of aglycone increases with increasing hexosaminidase A (FIG. 1), and the UHPLC retention time of the aglycone matches that of an authentic aglycone, and this is different than the retention time of the ASB substrate. Thus, hexosaminidase A acts on the ASB substrate to produce algycone. Because hexosaminidase A acts on ASB substrate to produce algycone, this enzyme cannot be used in a coupled assay of ASB, and furthermore it is important to inhibit hexosaminidase A so as not to generate aglycone directly from the ASB substrate.
# arylsulfatase B (ASB) = biological target: T4, arylsulfatase B (ASB) (Homo sapiens, UniProt P15848); test: ASB (MPS-VI) assay with beta-NGA and Z-PUG-NAc, UHPLC-MS/MS
# T4 construct: from tissue; host or cells: dried blood spot (3 mm punch)
# Description: Having established the action of human hexosaminidase A on the ASB substrate, the ASB assay was developed, using the same approach developed for GALNS, namely adding beta-NGA and Z-PUG-NAc. The experiments were carried out as for the GALNS assays (see Example 10) but with 1 mM ASB substrate replacing the GALNS substrate.
# (§1) Experiment 1. A 3 mm punch of a dried blood spot from a random newborn is incubated with 0.03 mL of assay cocktail consisting of 1 mM GALNS substrate in 50 mM ammonium formate pH 4.0 containing 7.5 mM barium acetate, 5.0 mM cerium acetate, 1 mM Z-PUG-NAc, and 0.01 mg of bacterial beta-N-acetylgalactosaminidase. The mixture also contains 0.005 mM internal standard. After 16 hrs at 37° C. with shaking, the mixture is quenched with 0.12 mL of acetonitrile and the sample plate is centrifuged to pellet the precipitate. Supernatant (0.12 mL) is transferred to a new plate, and 0.12 mL of water is added. The plate is placed on the autosampler of the UHPLC-MS/MS instrument (Waters Xevo TQ MS/MS with a Waters Acquity UHPLC system). A portion of the sample (0.01 mL) is injected, and the GALNS product (substrate minus sulfate), the internal standard, and the aglycones derived from the GALNS product and internal standard are quantified by multiple reaction monitoring (MS/MS). Note the internal standard added, like the GALNS product, is converted to its aglycone by the addition of bacterial beta-N-acetylgalactosaminidase.
# [2] = biological target: T5, N-acetylgalactosamine-4-sulfate-sulfatase (MPS-VI enzyme) (Homo sapiens, UniProt P15848); test: MPS-VI enzyme assay with dried blood spot punch, tandem mass spectrometry
# T5 construct: from tissue; host or cells: dried blood spot (3 mm punch)
# Description: The original and alternative MPS-VI substrates were compared in side-by-side enzyme assays as follows: 1 mM substrate, 10 uM internal standard in 30 uL of buffer (100 mM ammonium formate, pH 4.0, 7.5 mM barium(II) acetate, 5.0 mM cerium(III) acetate). A 3 mm punch of a dried blood spot was added, and the mixtures were incubated with shaking for 16 hours at 37 deg C. The reactions were quenched by addition of an aqueous suspension (1:1) of DEAE cellulose (Whatmann DE52) (100 uL), followed by addition of 400 uL of ethyl acetate. The mixture was mixed by up and down pipetting a few times and then centrifuged (10 min at 3000 rpm) to separate the liquid layers and pellet the DE52. A 300 uL portion of the upper ethyl acetate layer was transferred to a new well, and solvent was removed by evaporation with a stream of oil-free air. The residue was taken up in 100 uL of methanol/5 mM aqueous ammonium formate (80/20, v/v) and infused into the tandem mass spectrometer. The barium and cerium salts are present to precipitate free sulfate and phosphate present in the dried blood spot since these anions cause production inhibition of the MPS-VI enzyme. The DE52 is added to trap remaining substrate so only product and internal standard (which are charge neutral) are extracted into ethyl acetate. […]
# human hexosaminidase A = biological target: T2, human hexosaminidase A; test: Block of endogenous hexosaminidase A in dried blood spots in the GALNS assay; conditions: 1 mM Z-PUG-NAc in assay cocktail with dried blood spot
# Description: as §1
# [3] = biological target: T3, iduronic acid 2-sulfatase; test: Sulfatase assay for MPS-II with second enzyme alpha-L-iduronidase; conditions: with iduronidase versus without
# Description: In the assay, a second enzyme, alpha-L-iduronidase (a glycohydrolase) is added to the assay cocktail, which converts Initial MPS-II Product to Final MPS-II Product by removing the iduronic acid residue leaving the aglycone. The iduronidase can be present in the assay cocktail that is incubated with the dried blood spot, or it can be added after the first incubation with the dried blood spot followed by a second incubation period. The amount of iduronidase added is sufficient to convert all Initial MPS-II Product to Final MPS-II Product. The assay cocktail also contains Initial MPS-II Internal Standard (same as Initial MPS-II Product but, for example, with 5 deuteriums in the benzoyl group), which is converted by iduronidase to Final MPS-II Internal Standard. Both Final MPS-II Product and Final MPS-II Internal Standard are detected by tandem mass spectrometry, which enables the amount of Final MPS-II Product to be quantified. […] The analytes are detected by multiple reaction monitoring.
# Thus the assay sensitivity has been improved by about 100-fold. […] With the assay of the invention, this desulfation is of no concern because the product being detected is the aglycone (Final MPS-II Product).
# [4] = Expt. 1: 3 mm dried blood spot punch, 1 mM Z-PUG-NAc, 0.01 mg beta-NGA
# [5] = Expt. 2: 3 mm filter paper punch (no blood), 1 mM Z-PUG-NAc, 0.01 mg of bacterial enzyme
# [6] = Expt. 3: 3 mm dried blood spot punch, 1 mM Z-PUG-NAc, no beta-NGA
# [7] = Expt. 4: 3 mm filter paper punch (no blood), nothing added
# T4 sequence (P15848 37-533): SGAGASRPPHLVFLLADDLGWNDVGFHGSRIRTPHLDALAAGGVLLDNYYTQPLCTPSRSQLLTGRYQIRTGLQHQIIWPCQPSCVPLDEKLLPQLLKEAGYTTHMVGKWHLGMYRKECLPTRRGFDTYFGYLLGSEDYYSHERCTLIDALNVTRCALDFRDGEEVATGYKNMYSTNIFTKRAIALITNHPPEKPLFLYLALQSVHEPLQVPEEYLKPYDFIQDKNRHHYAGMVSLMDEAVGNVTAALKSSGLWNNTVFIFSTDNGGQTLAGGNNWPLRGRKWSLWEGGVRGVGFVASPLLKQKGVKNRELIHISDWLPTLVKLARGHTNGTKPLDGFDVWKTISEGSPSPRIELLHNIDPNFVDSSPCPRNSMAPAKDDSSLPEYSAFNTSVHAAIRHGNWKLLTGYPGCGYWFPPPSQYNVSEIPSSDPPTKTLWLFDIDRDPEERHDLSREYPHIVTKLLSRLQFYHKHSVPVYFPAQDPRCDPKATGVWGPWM
# T5 sequence (P15848 37-533): as above
molecule,measurement,setting,value
CCCCC(=O)N(CCCCCNC(=O)c1ccccc1)CCC(=O)Nc1ccc(OC2OC(CO)C(OS(=O)(=O)O)C(O)C2NC(C)=O)cc1 (stereo not shown) [ASB substrate],aglycone release from substrate by hexosaminidase A,[1],acts on the ASB substrate to liberate aglycone
same,ASB product (substrate without sulfate) peak area,arylsulfatase B (ASB); [4],"154,000"
same,aglycone peak area (product without sugar),arylsulfatase B (ASB); [4],"1,570,000"
same,ASB product (substrate without sulfate) peak area,arylsulfatase B (ASB); [5],404
same,aglycone peak area (product without sugar),arylsulfatase B (ASB); [5],"58,300"
same,ASB product (substrate without sulfate) peak area,arylsulfatase B (ASB); [6],"371,000"
same,aglycone peak area (product without sugar),arylsulfatase B (ASB); [6],"39,900"
same,ASB product (substrate without sulfate) peak area,arylsulfatase B (ASB); [7],"3,340 and 3,430"
same,aglycone peak area (product without sugar),arylsulfatase B (ASB); [7],"33,800"
"CCCCC(=O)N(CCCCCNC(=O)c1ccccc1)CCC(=O)Nc1ccc(OC2OC(CO)C(OS(=O)(=O)O)C(O)C2NC(C)=O)cc1 [Alternative MPS-VI, Sodium (2R,3R,4R,5R,6S)-5-acetamido-6(4(3-(N (5-benzamidopentyl)-pentanamido)propanamido)phenoxy)-4-hydroxy-2-(hydroxymethyl)tetrahydro-2H-pyran-3-yl sulfate]",Enzymatic Activity,"[2]; 1 mM substrate, 3 mm dried blood spot punch, pH 4.0, 16 hours at 37 deg C",1.5 umole/hr/L blood
same,blood-no blood assay ratio,[2]; activity with dried blood spot punch to that with blood-free punch,77.9
"CC(=O)N[C@H]1/C(=N/OC(=O)Nc2ccccc2)O[C@H](CO)[C@@H](O)[C@@H]1O [Z-PUG-NAc, (Z)—O-(2-acetamido-2-deoxy-D-glucopyranosylidene)-amino N-phenylcarbamate]",inhibition of hexosaminidase A,human hexosaminidase A,fully block hexosaminidase A
B1,improvement of assay sensitivity by second enzyme,[3],about 100 fold
